This is an account of results in patent publication US20220409598A1, “METHOD OF CONTROLLING BLOOD SUGAR LEVEL AND TREATMENT OF DIABETES AND RELATED CONDITIONS” (ILDONG PHARMACEUTICAL CO., LTD., priority 2021, published 2022).

Where two headings read alike, the source gives them in different places.

The conditions of series [1]: diabetics, metformin on its own; cited from earlier work.
In series [2] the target is BSEP (bile salt export pump) (Homo sapiens, UniProt O95342). In words: Human transporter inhibition study, BSEP. The class given is biochemical. The settings on record: in vitro inhibition; read-out: BSEP IC50. From the text: DILI risk may be due to potency of BSEP inhibition in combination with in vivo drug exposure (e.g., Cmax or Css (plasma concentration at steady state)).
(§1) • (a) Human Transporter Inhibition Study and Safety Margin

Another series has as its target MRP2 (Homo sapiens, UniProt Q92887). Nature of the series: Human transporter inhibition study, MRP2. The settings on record: read-out: MRP2 in vitro inhibition IC50. The class given is biochemical.
Source text: as §1

The target of another series is MRP3 (Homo sapiens, UniProt O15438). In words: Human transporter inhibition study, MRP3. The class given is biochemical. The settings on record: read-out: MRP3 in vitro inhibition IC50.
Source text: as §1

The target of a further series is T1, MRP4 (Homo sapiens, UniProt O15439).
T1 sequence (O15439 1-1325): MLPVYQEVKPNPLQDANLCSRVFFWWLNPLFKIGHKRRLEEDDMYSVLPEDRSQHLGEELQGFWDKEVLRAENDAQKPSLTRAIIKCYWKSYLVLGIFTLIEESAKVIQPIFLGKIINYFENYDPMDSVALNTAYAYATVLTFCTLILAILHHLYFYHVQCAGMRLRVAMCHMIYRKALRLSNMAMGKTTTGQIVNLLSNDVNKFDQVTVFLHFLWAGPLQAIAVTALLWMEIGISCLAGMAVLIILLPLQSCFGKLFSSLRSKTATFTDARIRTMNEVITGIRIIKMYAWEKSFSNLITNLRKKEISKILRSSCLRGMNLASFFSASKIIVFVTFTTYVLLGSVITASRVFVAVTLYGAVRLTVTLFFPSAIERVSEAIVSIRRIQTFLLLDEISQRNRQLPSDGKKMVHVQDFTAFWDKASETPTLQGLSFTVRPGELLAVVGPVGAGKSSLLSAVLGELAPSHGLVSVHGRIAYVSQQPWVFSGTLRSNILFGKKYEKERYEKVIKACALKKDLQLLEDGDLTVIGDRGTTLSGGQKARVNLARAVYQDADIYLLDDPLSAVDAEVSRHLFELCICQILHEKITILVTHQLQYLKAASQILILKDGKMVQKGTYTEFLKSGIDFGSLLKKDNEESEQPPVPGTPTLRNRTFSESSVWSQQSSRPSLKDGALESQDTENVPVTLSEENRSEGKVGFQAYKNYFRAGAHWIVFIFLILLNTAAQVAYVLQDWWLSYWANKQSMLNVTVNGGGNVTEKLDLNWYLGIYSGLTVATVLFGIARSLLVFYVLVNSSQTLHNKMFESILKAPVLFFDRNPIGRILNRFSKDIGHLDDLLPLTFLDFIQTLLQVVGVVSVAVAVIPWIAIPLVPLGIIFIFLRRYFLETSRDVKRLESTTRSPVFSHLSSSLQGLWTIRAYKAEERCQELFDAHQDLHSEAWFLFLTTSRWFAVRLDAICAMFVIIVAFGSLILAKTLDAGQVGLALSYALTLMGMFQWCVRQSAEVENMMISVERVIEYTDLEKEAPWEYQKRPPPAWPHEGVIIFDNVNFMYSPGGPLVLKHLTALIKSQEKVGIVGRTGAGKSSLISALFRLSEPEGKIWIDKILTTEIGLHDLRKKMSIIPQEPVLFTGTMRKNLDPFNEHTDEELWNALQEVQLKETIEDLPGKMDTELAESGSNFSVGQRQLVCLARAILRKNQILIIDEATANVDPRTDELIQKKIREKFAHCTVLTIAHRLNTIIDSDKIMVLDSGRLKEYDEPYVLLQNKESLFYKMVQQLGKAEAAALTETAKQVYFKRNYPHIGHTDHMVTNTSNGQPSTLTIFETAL
In words: Human transporter inhibition study, MRP4. The settings on record: read-out: MRP4 in vitro inhibition IC50. The class given is biochemical.
Source text: as §1

Series [3] deals with glycocholic acid (GCA) accumulation. Nature of the series: Bile acid analysis, glycocholic acid (GCA) accumulation. The class given is cell-based. The settings on record: at 4 μM. The text has this: Glycocholic acid (GCA) and glycochenodeoxycholic acid (GCDCA) are major components of human bile acids and their significant increase has been confirmed in DILI patients.
A short description of series [4]: HμRELTox assay, hepatotoxic response. The settings on record: read-out: TC50 (the source's name). The class given is cell-based.
The subject of the next series is PPAR. Nature of the series: Transcription factor profiling in 2D HepG2 cell, PPAR. The settings on record: 10 μM for 24 hours. Type of series: cell-based.
A further series concerns AP-1. In words: Transcription factor profiling in 2D HepG2 cell, AP-1. The class given is cell-based. The settings on record: 10 μM for 24 hours.
Another series deals with NRF2. In words: Transcription factor profiling in 2D HepG2 cell, NRF2. Type of series: cell-based. The settings on record: 10 μM for 24 hours.
The conditions of series [5]: cited from earlier work; for Cmax: fasiglifam, Clin. Pharmacol. Ther. 92, 29-39, read-out: Human Cmax (maximum plasma concentration at steady state); for Cpss, max: human.
The next series concerns human hepatocytes. The settings on record: Otieno et al. 2018, cited from earlier work.

Chain of MRP3 (O15438 whole entry): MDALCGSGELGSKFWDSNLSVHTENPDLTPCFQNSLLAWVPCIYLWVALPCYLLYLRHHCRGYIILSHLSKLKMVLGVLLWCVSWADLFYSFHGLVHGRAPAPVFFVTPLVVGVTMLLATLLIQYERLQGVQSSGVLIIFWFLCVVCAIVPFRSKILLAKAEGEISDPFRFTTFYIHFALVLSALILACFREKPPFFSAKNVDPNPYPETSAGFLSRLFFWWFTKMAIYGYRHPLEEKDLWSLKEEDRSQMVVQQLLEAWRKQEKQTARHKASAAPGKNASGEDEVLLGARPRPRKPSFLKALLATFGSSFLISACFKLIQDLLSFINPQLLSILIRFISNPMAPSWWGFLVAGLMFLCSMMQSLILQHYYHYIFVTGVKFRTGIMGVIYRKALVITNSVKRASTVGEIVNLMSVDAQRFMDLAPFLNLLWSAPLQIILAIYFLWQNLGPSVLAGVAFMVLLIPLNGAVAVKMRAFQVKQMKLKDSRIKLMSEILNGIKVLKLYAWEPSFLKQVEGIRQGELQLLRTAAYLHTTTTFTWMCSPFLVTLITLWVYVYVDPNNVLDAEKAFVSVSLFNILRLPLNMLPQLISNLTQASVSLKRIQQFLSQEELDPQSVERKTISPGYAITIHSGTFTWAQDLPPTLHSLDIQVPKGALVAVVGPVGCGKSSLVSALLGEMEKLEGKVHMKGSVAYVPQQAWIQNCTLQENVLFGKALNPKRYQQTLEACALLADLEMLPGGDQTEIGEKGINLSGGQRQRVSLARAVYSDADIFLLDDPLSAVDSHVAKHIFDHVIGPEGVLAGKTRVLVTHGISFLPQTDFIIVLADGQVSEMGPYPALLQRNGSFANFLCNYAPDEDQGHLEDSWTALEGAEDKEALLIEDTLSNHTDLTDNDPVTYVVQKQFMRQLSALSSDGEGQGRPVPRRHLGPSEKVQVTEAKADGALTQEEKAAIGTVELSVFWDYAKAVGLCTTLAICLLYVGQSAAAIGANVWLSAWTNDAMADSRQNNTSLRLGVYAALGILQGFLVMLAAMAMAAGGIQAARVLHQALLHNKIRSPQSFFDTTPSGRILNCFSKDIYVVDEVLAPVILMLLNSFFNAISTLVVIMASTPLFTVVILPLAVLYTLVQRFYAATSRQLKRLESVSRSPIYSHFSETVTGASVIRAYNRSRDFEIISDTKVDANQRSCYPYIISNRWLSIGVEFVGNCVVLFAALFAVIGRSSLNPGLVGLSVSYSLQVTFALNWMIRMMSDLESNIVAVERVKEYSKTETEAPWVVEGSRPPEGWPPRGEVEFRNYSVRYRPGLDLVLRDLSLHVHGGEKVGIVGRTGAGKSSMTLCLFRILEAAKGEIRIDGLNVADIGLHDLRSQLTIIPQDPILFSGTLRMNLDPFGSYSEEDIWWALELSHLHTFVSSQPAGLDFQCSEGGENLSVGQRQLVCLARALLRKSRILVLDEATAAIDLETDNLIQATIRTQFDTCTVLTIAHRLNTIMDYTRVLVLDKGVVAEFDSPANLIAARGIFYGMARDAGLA
Chain of BSEP (bile salt export pump) (O95342 whole entry): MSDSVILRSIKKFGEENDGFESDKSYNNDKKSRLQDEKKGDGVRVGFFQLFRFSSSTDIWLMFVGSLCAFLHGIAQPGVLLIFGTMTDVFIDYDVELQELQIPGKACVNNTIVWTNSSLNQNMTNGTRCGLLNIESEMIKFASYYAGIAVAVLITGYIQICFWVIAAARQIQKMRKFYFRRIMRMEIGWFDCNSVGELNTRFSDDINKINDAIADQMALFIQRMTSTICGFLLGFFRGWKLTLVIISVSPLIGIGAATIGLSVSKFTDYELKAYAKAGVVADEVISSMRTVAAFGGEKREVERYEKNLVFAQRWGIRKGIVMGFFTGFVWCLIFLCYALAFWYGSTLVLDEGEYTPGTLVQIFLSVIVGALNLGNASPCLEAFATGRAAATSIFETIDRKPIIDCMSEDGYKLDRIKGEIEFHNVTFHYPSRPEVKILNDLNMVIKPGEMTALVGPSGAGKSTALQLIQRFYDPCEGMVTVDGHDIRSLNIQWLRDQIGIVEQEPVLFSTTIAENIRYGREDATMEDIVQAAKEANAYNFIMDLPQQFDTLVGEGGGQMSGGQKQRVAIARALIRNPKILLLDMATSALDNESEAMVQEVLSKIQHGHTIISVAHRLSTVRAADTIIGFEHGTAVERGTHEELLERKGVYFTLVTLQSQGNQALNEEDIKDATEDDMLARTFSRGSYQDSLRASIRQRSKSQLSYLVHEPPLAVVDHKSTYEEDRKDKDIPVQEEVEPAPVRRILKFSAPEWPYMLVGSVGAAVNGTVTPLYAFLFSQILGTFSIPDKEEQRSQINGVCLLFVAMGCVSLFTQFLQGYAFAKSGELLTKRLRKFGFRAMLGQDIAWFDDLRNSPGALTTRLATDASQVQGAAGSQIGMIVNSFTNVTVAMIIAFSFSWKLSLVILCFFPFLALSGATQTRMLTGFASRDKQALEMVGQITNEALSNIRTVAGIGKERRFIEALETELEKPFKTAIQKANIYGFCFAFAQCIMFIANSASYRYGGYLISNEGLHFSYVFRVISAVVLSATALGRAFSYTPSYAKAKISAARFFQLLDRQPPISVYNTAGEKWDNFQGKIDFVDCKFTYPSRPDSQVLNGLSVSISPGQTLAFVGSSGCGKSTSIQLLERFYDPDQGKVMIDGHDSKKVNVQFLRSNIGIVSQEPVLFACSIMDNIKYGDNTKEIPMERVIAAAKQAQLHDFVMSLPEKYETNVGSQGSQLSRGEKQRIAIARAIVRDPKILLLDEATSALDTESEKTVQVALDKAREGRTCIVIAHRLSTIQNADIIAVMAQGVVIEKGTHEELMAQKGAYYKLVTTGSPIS
Chain of MRP2 (Q92887 whole entry): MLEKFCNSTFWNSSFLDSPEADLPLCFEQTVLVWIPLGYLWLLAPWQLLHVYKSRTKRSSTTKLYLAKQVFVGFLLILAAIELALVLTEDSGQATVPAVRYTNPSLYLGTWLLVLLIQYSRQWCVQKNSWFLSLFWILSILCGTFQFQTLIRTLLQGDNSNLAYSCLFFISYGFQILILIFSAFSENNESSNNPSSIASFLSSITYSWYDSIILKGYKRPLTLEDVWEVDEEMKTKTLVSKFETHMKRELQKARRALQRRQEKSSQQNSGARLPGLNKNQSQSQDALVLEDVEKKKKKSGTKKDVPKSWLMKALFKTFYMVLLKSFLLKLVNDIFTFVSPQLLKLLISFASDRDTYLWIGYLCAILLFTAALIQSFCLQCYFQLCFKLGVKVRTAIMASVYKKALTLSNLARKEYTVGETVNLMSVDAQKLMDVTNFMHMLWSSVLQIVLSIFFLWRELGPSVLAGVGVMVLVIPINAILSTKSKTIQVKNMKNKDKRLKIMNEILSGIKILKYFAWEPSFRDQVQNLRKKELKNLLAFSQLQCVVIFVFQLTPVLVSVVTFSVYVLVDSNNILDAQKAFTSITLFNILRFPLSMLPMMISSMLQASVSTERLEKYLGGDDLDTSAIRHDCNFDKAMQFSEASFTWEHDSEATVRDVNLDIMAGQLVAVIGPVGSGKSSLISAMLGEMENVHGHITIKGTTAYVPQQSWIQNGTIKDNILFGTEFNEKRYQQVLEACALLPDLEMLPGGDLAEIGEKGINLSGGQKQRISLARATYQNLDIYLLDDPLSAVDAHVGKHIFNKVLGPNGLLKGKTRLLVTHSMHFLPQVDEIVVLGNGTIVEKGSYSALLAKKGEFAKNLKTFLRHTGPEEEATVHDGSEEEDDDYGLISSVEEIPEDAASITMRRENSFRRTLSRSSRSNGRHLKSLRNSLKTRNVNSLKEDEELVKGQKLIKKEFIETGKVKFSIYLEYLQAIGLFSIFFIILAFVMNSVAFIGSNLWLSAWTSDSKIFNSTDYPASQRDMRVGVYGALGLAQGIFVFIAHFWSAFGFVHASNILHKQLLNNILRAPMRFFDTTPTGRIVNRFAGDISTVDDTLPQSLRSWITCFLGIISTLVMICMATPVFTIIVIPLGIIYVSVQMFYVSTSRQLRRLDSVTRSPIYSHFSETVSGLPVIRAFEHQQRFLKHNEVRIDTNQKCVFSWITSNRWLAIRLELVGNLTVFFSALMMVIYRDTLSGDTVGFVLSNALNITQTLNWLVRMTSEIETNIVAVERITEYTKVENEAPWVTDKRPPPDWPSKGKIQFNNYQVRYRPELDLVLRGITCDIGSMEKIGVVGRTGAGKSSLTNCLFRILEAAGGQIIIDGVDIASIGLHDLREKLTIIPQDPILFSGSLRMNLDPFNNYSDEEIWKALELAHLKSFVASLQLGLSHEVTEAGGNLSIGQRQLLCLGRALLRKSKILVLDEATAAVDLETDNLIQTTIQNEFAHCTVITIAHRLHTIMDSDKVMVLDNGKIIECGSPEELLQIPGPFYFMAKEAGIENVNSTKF

On to `CN(C)C(=N)N=C(N)N` [metformin], for which the “Average improvement in the HbA1c value” in series [1] is 1.0-1.5%.
Broadly, the IC50 is the concentration that inhibits the measured activity by half. Take `Cc1cc(OCCCS(C)(=O)=O)cc(C)c1-c1cccc(COc2ccc3c(c2)OC[C@H]3CC(=O)O)c1` [fasiglifam]: the IC50 worked out at 19.6 µM in series [2], 24.8 µM at MRP2, 14.2 µM on MRP3 and 11.1 µM at MRP4. Besides, the “Accumulation of glycocholic acid (GCA)” value in [3] was “significant accumulation”. The CC50 in series [4] is 88.4 µM. Also, in the series on PPAR, the “Activity of PPAR” value was “significantly increased”. Moreover, the “Activity of AP-1” value in the series on AP-1 was “significantly increased”. The “Activity of NRF2” value in the series with NRF2 is recorded as “significantly increased”. The results for the Cmax in series [5] (listed as Fasiglifam) and in series [5] were 10 µM and 10.1 µM, respectively. The “Cpss, max” value was 4.38 µM in series [5] (dose 25 mg) and 10.10 µM in [5] (dose 50 mg). The “CVB Burden” value with human hepatocytes (daily dose 50 mg) is 2 mg/day. Besides, the “Covalent binding (CVB), compound” value in the series with human hepatocytes (human hepatocytes, compound alone) is on record as 69.1 pmol/mg protein. Besides, the “Covalent binding (CVB), +Aminobenzotriazole (CYP inhibitor)” value in the series with human hepatocytes (human hepatocytes) is 73.7 pmol/mg protein. Besides, the “Covalent binding (CVB), +Borneol (UGT inhibitor)” value with human hepatocytes (human hepatocytes) is reported as 44.4 pmol/mg protein.
